Target: HCV NS3/4A wild type (wt) (Hepatitis C virus genotype 1b (isolate BK) (HCV), UniProt P26663)
Experiment: Mass spectrometric analysis (MALDI-TOF) of intact protease incubated with test compound
Type: binding
Settings: 10-fold excess of compound
Procedure: Mass spectrometric analysis of HCV wild type or HCV variant C159S in the presence of test compound is performed. 100 pmols of HCV wild type (Bioenza CA) is incubated with test compound for 1 hr and 3 hrs at 10-fold access of test compound to protein. 1 ul aliquots of the samples (total volume of 4.24 ul) are diluted with 10 ul of 0.1% TFA prior to micro C4 ZipTipping directly onto the MALDI target using Sinapinic acid as the desorption matrix (10 mg/mL in 0.1% TFA:Acetonitrile 50:50). Analyses are performed on a Shimadzu Biotech Axima TOF^2 (Shimadzu Instruments) matrix-assisted-laser desorption/ionization Time-of-Flight (MALDI-TOF) mass spectrometer. The same procedure is carried out on 100 pmols of HCV C159S mutant of HCV protease for 3 hrs at 10-fold excess of test compound to protein.
(§1) 2 ul aliquots of the samples were diluted with 10 ul of 0.1% TFA prior to micro C4 ZipTipping directly onto the MALDI target using Sinapinic acid as the desorption matrix (10 mg/ml in 0.1% TFA:Acetonitrile 50:50). For intact protein mass measurement the instrument was set in linear mode using a pulsed extraction setting of 24,500 and apomyoglobin as the standard to calibrate the instrument.
as §1, with “[…]” for “C4”, “20:80).” for “50:50).”

| Compound | covalent modification of protein (reaction with compound, mass spectrometry) (3 hr incubation) | mass increase of new protein species versus protein with no compound (3 hr incubation) | covalent modification of protein (reaction with compound, mass spectrometry) (1 hr incubation) |
| --- | --- | --- | --- |
| C=CC(=O)NC[C@H](NC(=O)[C@@H](NC(=O)c1cnccn1)C1CCCCC1)C(=O)N1C[C@@H]2CCC[C@@H]2[C@H]1C(=O)N[C@@H](CCC)C(=O)C(=O)NC1CC1 [Compound I-11, (1S,3aR,6aS)-2-((S)-3-acrylamido-2-((S)-2-cyclohexyl-2-(pyrazine-2-carboxamido)acetamido)propanoyl)-N—((S)-1-(cyclopropylamino)-1,2-dioxohexan-3-yl)octahydrocyclopenta[c]pyrrole-1-carboxamide] | reacted significantly to produce a new species | approximately 703 Da |  |
| CCC[C@H](NC(=O)[C@@H]1[C@H]2CCC[C@H]2CN1C(=O)[C@@H](NC(=O)[C@@H](NC(=O)c1cnccn1)C1CCCCC1)C(C)(C)C)C(=O)C(=O)NC1CC1 [telaprevir, reference compound] |  |  | no reaction |
